Literature values, collected in patent publication US10369266B2, “Multipart fluid system and a system for citrate anticoagulation in an extracorporeal blood circuit” (Gambro Lundia AB, priority 2013, dated 2019).

Tested on: endothelial inflammation and dysfunction
Details: citrate 0.8 mM; hypoglycemic state; in vitro

## O=C(O)CC(O)(CC(=O)O)C(=O)O [citrate]
  effect on endothelial inflammation and dysfunction: reduces endothelial inflammation and dysfunction
